# From US20240150322A1, “CDK9 Inhibitors” (Biolexis Therapeutics, Inc., priority 2022, published 2024)
# What was measured:
# [1] = tested on: pCDK9, pSer2, N-MYC, C-MYC and MCL-1; experiment: Target modulation in prostate cancer patient samples; format: cell-based; settings: newly diagnosed and resistant prostate cancer patient samples
# LASCPC-01 = experiment: Annexin V/7-AAD apoptosis assay; format: cell-based
# [2] = tested on: RWPE-1 Normal Prostate Cells; experiment: CellTiter-Glo 2D cell viability assay in normal prostate cells; format: cell-based; settings: Homo sapiens; RWPE-1 normal prostate cells, 72 hours
# Protocol: Multiplexing the LDH-Glo Cytotoxicity Assay and CellTiter-Glo 2D Cell Viability Assay. […] Change in toxicity was measured using the LDH-Glo Cytotoxicity Assay by combining 50 μL diluted samples with 50 μL LDH Detection Reagent and recording luminescence after 1 hour incubation. After samples were removed for LDH measurement, an equal volume of CellTiter Glo 2D Reagent was added to the remaining cell suspension and luminescence was recorded after 30-minute incubation period.
# PRKD3 = PRKD3 (Homo sapiens, UniProt O94806); experiment: scanMAX panel and Kd follow-up; format: binding
# PRKD3, sequence (O94806 whole entry): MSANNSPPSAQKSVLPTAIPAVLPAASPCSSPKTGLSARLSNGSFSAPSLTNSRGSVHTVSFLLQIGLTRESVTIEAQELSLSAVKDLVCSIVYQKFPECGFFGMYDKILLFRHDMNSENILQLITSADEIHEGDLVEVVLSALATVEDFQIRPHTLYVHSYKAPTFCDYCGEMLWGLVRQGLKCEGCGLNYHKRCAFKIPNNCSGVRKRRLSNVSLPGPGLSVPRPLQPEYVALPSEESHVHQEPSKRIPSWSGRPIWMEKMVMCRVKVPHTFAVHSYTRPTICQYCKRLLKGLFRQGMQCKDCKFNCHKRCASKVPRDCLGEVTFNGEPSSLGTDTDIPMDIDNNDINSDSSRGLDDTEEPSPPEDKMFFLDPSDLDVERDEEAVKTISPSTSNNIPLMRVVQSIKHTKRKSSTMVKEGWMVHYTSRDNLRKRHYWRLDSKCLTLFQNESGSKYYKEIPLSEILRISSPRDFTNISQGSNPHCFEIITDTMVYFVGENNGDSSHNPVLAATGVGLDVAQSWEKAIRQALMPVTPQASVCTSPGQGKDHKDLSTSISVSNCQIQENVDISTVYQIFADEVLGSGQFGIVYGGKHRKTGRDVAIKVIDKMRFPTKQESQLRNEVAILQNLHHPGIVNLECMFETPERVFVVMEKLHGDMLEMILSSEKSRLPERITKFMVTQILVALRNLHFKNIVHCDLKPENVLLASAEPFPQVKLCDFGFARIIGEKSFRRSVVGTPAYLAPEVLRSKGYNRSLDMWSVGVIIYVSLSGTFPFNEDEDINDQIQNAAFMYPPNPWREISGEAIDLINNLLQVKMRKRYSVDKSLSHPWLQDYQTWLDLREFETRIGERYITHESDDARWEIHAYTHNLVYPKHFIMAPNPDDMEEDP
# [3] = Pharmacokinetic study in rat; settings: in vivo, po
# TAOK3 = TAOK3 (Homo sapiens, UniProt Q9H2K8); experiment: scanMAX panel and Kd follow-up; format: binding
# TAOK3, sequence (Q9H2K8 whole entry): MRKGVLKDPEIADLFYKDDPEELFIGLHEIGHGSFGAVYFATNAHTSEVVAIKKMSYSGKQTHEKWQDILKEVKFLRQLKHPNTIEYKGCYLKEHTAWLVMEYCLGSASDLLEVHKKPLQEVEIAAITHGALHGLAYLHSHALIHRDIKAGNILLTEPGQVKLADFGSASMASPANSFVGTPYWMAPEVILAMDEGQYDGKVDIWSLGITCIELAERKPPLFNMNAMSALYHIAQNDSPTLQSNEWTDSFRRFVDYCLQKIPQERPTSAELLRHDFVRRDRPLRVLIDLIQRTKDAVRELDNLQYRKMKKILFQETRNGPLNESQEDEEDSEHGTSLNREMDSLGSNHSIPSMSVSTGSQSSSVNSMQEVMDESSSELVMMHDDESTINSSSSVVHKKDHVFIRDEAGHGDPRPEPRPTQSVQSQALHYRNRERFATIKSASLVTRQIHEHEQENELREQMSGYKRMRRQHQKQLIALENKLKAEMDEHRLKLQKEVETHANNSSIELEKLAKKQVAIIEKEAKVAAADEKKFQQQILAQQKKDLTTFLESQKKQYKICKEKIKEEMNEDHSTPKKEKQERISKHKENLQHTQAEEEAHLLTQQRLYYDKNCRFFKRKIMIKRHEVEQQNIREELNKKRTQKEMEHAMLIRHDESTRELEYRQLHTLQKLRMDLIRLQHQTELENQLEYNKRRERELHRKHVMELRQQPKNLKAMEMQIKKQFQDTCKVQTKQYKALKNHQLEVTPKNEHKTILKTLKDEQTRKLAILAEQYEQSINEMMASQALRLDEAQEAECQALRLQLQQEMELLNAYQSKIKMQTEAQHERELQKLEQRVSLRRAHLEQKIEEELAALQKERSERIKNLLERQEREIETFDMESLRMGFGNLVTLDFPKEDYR
# [4] = Pharmacokinetic study in mice; settings: mouse, in vivo, po
# CDK3/cyclinE [5] = target: T1, CDK3/cyclinE (Homo sapiens, UniProt Q00526); experiment: CDK family kinase profiling, radioisotope-based assay (33P); format: biochemical; parameters: purchased Reaction Biology; settings: read-out: 10-dose IC50
# Protocol: (§1) CDKs family kinases profiling assays were performed with DiscoveRx Matrix of Kds KINOMEscan (KdELECT) and Reaction Biology using miniaturized radioisotope-based assay platform (^33P). IC50 value estimated based on the best curve fitting available.
# CDK2/cyclinA [6] = target: T2, CDK2/cyclinA (Homo sapiens, UniProt P24941); experiment: as above; format: biochemical; parameters: purchased Reaction Biology; settings: read-out: 10-dose IC50
# Protocol: as §1
# CDK4/cyclinD [7] = target: T3, CDK4/cyclinD (Homo sapiens, UniProt P11802); experiment: as above; format: biochemical; settings: read-out: 10-dose IC50
# T3 sequence (P11802 whole entry): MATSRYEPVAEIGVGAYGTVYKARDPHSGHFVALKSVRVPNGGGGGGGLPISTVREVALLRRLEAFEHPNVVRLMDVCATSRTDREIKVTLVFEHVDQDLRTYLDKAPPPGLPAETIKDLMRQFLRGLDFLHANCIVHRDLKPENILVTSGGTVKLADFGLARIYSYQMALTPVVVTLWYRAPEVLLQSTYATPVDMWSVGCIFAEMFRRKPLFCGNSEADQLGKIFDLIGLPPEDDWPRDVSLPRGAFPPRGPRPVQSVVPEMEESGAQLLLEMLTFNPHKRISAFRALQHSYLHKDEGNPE
# T3 sequence (P24385 whole entry partner): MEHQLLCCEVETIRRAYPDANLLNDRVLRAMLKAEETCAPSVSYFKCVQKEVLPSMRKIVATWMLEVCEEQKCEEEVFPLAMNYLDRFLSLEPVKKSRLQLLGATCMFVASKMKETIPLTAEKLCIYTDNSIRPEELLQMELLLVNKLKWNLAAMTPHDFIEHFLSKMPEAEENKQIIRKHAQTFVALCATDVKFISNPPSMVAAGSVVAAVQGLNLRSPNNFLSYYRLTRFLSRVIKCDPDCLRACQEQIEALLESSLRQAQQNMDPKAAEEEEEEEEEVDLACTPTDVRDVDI
# Protocol: as §1
# CDK7/cyclinH = target: T4, CDK7/cyclinH (Homo sapiens, UniProt P50613); experiment: as above; format: biochemical; settings: read-out: 10-dose IC50
# T4 construct: purchased Reaction Biology
# Protocol: as §1
# CDK5/P21 = target: T5, CDK5/P21 (Homo sapiens, UniProt Q00535); experiment: as above; format: biochemical; settings: read-out: 10-dose IC50
# T5 construct: purchased Reaction Biology
# T5 sequence (Q00535 whole entry): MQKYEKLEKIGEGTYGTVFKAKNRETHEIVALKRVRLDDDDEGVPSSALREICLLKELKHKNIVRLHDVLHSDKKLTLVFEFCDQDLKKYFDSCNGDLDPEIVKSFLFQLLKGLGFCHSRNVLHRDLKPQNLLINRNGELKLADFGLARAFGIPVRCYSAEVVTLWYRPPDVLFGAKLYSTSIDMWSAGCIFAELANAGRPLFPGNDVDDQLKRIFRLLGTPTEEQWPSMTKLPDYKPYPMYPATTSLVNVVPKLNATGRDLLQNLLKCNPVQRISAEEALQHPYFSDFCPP
# T5 sequence (Q15078 99-307 partner limits assumed): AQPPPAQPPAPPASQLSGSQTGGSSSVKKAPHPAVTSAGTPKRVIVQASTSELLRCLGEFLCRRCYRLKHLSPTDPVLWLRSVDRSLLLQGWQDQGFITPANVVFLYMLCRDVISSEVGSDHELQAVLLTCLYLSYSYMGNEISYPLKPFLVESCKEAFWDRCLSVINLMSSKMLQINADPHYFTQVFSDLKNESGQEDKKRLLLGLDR
# Protocol: as §1
# CDK9/cyclinT = target: T6, CDK9/cyclinT (Homo sapiens, UniProt P50750); experiment: as above; format: biochemical; settings: cell-free, read-out: IC50 against CDK9
# T6 construct: purchased Reaction Biology
# Protocol: as §1
# [8] = tested on: 22RV1 induced neuroendocrine prostate cancer (NEPC) CDX; experiment: In vivo tumor efficacy study, 22Rv1 NEPC CDX
# Protocol: 22Rv1 cells were cultured in RPMI supplemented with 10% FBS and 1% P/S, in a humidified incubator at 37° C. and 5% CO2. Nu/nu Balb/c homozygous mice were procured through Jackson laboratory (Strain 002019). Mice were fed Teklad irradiated (sterilized) mouse diet and bedded with Teklad irradiated (sterilized) corncob bedding from Envigo (Indianapolis, IN). Mice were housed in Optimice carousel sterile quarters with filtered air supply in disposable cages from Animal Care Systems, Inc. (Centennial, CO). A 12-hour light/12-hour dark light cycle is observed, with animal handling only taking place during the light cycle.
# 22Rv1 Implantation: On the day of implantation, cells were trypsinized and allowed to detach from flasks. Trypsin was then neutralized with complete media and cells were spun at 300×g. Media was aspirated and cells were re-suspended in 50:50 Cultrex RPMI (no supplementation) at a concentration of 5×10^7 cells/mL. A volume of 100 μL was injected into the right hind flank of each animal (a total of 5×10^6 cells per mouse). Cells were checked for viability using trypan blue exclusion and found to be >98% viable.
# • All mice were dosed orally, and the observation duration was 21 days […]
# Tumor volumes: Tumor volumes were measured by digital caliper, and volume was calculated using the formula [Width^2×Length]/2. All tumor volume measurements are recorded. […]
# CDK9 + Cyclin T1 = CDK9 + Cyclin T1 (Homo sapiens, UniProt P50750); experiment: cell-based
# CDK3/cyclinE [9] = target: T1, CDK3/cyclinE; experiment: DiscoveRx KINOMEscan Kd (KdELECT); format: binding
# Protocol: as §1
# CDK2/cyclinA [10] = target: T2, CDK2/cyclinA; experiment: DiscoveRx KINOMEscan Kd (KdELECT); format: binding
# Protocol: as §1
# CDK4/cyclinD [11] = target: T3, CDK4/cyclinD; experiment: DiscoveRx KINOMEscan Kd (KdELECT); format: binding
# Protocol: as §1
# Haspin = Haspin (Homo sapiens, UniProt Q8TF76); experiment: scanMAX panel and Kd follow-up; format: binding
# Haspin, sequence (Q8TF76 whole entry): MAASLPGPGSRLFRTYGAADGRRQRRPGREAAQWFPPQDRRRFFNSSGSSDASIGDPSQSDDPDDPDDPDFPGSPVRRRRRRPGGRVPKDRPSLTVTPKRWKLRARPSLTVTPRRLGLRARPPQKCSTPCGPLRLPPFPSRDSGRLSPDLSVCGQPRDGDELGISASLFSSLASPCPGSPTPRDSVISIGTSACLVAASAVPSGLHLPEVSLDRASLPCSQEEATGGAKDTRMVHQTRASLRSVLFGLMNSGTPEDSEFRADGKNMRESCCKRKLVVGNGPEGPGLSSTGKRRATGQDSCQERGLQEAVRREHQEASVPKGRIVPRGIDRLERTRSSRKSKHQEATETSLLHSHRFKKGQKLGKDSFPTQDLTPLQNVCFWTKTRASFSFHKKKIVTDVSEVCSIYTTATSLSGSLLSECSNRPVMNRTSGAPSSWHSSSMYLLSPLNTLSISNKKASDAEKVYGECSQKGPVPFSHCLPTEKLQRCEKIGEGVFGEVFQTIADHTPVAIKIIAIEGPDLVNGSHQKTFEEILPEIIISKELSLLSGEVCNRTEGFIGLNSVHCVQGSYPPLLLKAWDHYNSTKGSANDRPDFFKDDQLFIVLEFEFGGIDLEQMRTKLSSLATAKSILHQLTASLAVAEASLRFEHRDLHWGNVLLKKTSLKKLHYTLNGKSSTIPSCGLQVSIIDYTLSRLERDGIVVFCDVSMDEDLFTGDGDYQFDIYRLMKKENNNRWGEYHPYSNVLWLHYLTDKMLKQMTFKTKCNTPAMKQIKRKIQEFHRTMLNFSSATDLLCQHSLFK
# ERK8 = ERK8 (Homo sapiens, UniProt Q8TD08); experiment: scanMAX panel and Kd follow-up; format: binding
# ERK8, sequence (Q8TD08 whole entry): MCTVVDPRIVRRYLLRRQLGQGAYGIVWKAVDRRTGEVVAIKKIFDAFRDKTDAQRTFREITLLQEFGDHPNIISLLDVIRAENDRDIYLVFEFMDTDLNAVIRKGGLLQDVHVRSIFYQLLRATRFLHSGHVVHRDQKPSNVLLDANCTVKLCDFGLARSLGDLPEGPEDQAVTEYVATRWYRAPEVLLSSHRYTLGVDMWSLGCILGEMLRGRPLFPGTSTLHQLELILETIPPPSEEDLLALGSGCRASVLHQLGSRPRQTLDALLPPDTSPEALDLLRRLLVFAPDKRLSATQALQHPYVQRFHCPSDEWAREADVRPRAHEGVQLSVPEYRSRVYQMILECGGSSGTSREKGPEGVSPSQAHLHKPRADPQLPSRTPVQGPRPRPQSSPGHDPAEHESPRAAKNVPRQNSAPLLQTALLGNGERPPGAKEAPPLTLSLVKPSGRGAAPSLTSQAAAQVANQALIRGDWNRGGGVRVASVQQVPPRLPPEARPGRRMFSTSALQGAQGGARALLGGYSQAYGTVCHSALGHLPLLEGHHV
# PCTK1 = PCTK1 (Homo sapiens, UniProt Q00536); experiment: scanMAX panel and Kd follow-up; format: binding
# PCTK1, sequence (Q00536 whole entry): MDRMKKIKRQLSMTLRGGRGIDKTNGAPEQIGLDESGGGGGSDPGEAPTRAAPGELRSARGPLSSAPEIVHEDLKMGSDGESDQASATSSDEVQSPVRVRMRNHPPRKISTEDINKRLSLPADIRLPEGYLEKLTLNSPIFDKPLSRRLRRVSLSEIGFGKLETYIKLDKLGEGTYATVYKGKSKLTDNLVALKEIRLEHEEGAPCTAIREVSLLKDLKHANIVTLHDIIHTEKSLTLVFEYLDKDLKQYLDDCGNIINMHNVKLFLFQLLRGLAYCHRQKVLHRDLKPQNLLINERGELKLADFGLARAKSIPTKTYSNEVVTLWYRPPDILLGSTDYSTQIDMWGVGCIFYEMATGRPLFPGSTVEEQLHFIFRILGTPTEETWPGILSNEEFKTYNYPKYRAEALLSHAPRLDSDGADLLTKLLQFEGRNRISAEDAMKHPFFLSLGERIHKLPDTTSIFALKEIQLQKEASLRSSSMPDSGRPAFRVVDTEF
# [12] = tested on: CDK9 downstream targets in 22Rv1 and LASCPC-01; experiment: Western blot analysis of nuclear extract; format: cell-based
# Protocol: Cytoplasmic and nuclear extracts from these cells were separated using NE-PER Nuclear and Cytoplasmic Extraction Kit (ThermoFisher). […] Relative protein expression of CDK9, N-Myc and other downstream signaling was quantified by GraphPad Prism 8 and ImageJ Software RT-PCR Gene.
# Then cells were harvested with PBS and fixed with ice-cold 70% ethanol at −20° C. overnight. The cells were then washed with ice-cold PBS 2× and then re-suspended in DAPI staining buffer and incubated in the dark for 30 minutes. The cells were analyzed using BD Fortessa flow cytometer and cell cycle distribution was analyzed using FlowJo and GraphPad Prism 8 Software.
structure (smiles),measurement,setting,value
"CC(C)c1c2cc(-c3ccnc(N[C@H]4CC[C@H](N)C4)n3)ccc2nn1C [Compound I-2, (1S,3S)-[3-[4-(3-isopropyl-2-methylindazol-5-yl)pyrimidin-2-yl]aminocyclopentan-1-yl]-1,3-diamine]","pCDK9, pSer2 and downstream N-MYC, C-MYC and MCL-1",[1],reduced
same,apoptosis by Annexin V/7-AAD staining,LASCPC-01; LASCPC-01,increased apoptosis in a dose dependent manner
same,cell death,"LASCPC-01; LASCPC-01, treated for 72 hours",69%
same,IC50,[2],5260 nM
same,Kd,PRKD3; PRKD3,230 nM
same,remaining binding at 1 µM,"PRKD3; PRKD3, 1 μM, read-out: % of control activity",0 to 1%
same,bioavailability,[3],38%
same,Kd,TAOK3; TAOK3,9.2 nM
same,remaining binding at 1 µM,"TAOK3; TAOK3, 1 μM, read-out: % of control activity",0 to 1%
same,bioavailability,[4],28%
same,IC50,CDK3/cyclinE [5],115 nM
same,IC50,CDK2/cyclinA [6],17.6 nM
same,IC50,CDK4/cyclinD [7],22.8 nM
same,IC50,CDK7/cyclinH,119 nM
same,IC50,CDK5/P21,245 nM
same,IC50,CDK9/cyclinT,< 5 nM
same,tumor growth,"[8]; 22Rv1, 30, 50, 65 mg/kg orally once daily, 21 days",inhibit tumor growth in a dose dependent manner
same,tolerability,"[8]; 22Rv1 study, >50 mg/kg dosing levels",Tolerability issues
same,IC50,CDK9 + Cyclin T1,15.6 nM
same,Kd,CDK3/cyclinE [9],31 nM
same,Kd,CDK2/cyclinA [10],30 nM
same,Kd,CDK4/cyclinD [11],22 nM
same,Kd,Haspin,2.8 nM
same,remaining binding at 1 µM,"Haspin; 1 μM, read-out: % of control activity",0 to 1%
same,Kd,ERK8; ERK8,5.5 nM
same,remaining binding at 1 µM,"ERK8; ERK8, 1 μM, read-out: % of control activity",0 to 1%
same,Kd,PCTK1; PCTK1,8.2 nM
same,remaining binding at 1 µM,"PCTK1; PCTK1, 1 μM, read-out: % of control activity",0 to 1%
same,CDK9 downstream targets (Western blot),[12],inhibited the CDK9 downstream targets
